What was measured:
S. pneumoniae D39V [1] = assay: fitness (endpoint OD595 vs no drug) (fraction); higher = more growth
Outline: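 Growth medium was TSB, LB Lennox or CY, and plates were kept at 37 °C. Inoculation was at OD595 0.01 in 384-well plates, at 30 µl per well or 55 µl for S. pneumoniae. OD595 was monitored every 30 min for 14 h and background-subtracted using the first reading. Fitness is the optical density on entering stationary phase divided by the robust mean of no-drug controls, with values capped at 1.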

B. subtilis 168 = assay: Bliss interaction score (quartile over a dose matrix) (fitness difference); higher = more antagonism (negative = synergy)
Outline: (§1)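 Quartiles summarise the Bliss score over technical, biological and donor/recipient replicates, where the score is observed minus expected fitness under a product model. Expected fitness uses single-drug values inferred from combination data. Fitness is OD595 at entry into stationary phase over the plate's robust no-drug mean, capped at 1.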

S. aureus DSM 20231 = assay: as above
Outline: as §1

S. aureus Newman = assay: as above
Outline: as §1

S. pneumoniae D39V [2] = assay: as above
Outline: as §1
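Throughout, for Bliss interaction score (quartile over a dose matrix): first quartile when negative (synergy) and third quartile when positive (antagonism).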

Clc1ccc(COC(Cn2ccnc2)c2ccc(Cl)cc2Cl)c(Cl)c1 (stereo not drawn) [Miconazole] + CCN(CC)CCOC(=O)c1ccc(N)cc1 [Procaine]
fitness, S. pneumoniae D39V [1]
Details | first compound 1.073 µg/mL | first compound 2.145 µg/mL | first compound 4.29 µg/mL
partner 85.5 µg/mL | ≥ 1 | ≥ 1 | 0.936
partner 171 µg/mL | 0.993 | 0.999 | 0.899
partner 342 µg/mL | 0.997 | ≥ 1 | 0.871

fitness, S. pneumoniae D39V [1], one replicate
Details | first compound 1.25 µg/mL | first compound 2.5 µg/mL | first compound 5 µg/mL
partner 85.5 µg/mL | 0.983 | ≥ 1 | ≥ 1
partner 171 µg/mL | 0.971 | 0.976 | 0.992
partner 342 µg/mL | 0.968 | 0.992 | ≥ 1

Details | Bliss interaction score
B. subtilis 168 | 0.0691
S. aureus DSM 20231 | 0.0418
S. aureus Newman | -0.0389
S. pneumoniae D39V [2] | 0.0592

Clc1ccc(COC(Cn2ccnc2)c2ccc(Cl)cc2Cl)c(Cl)c1 (stereo not drawn) [Miconazole] + COc1ccc(C[C@H](N)C(=O)N[C@H]2[C@@H](O)[C@H](n3cnc4c(N(C)C)ncnc43)O[C@@H]2CO)cc1 [Puromycin]
fitness, S. pneumoniae D39V [1]
Details | first compound 1.073 µg/mL | first compound 2.145 µg/mL | first compound 4.29 µg/mL
partner 1 µg/mL | 0.966 | ≥ 1 | 0.968
partner 2 µg/mL | 0.996 | ≥ 1 | 0.976
partner 4 µg/mL | 0.879 | 0.903 | 0.846

fitness, S. pneumoniae D39V [1], one replicate
Details | first compound 1.25 µg/mL | first compound 2.5 µg/mL | first compound 5 µg/mL
partner 1 µg/mL | 0.884 | 0.91 | ≥ 1
partner 2 µg/mL | 0.914 | 0.903 | 0.874
partner 4 µg/mL | 0.742 | 0.717 | 0.809

Details | Bliss interaction score
B. subtilis 168 | 0.0522
S. aureus DSM 20231 | 0.0532
S. aureus Newman | 0.0603
S. pneumoniae D39V [2] | 0.124

Clc1ccc(COC(Cn2ccnc2)c2ccc(Cl)cc2Cl)c(Cl)c1 (stereo not drawn) [Miconazole] + CN(N=O)C(=O)N[C@@H](C=O)[C@@H](O)[C@H](O)[C@H](O)CO [Streptozotocin]
fitness, S. pneumoniae D39V [1]
Details | first compound 1.073 µg/mL | first compound 2.145 µg/mL | first compound 4.29 µg/mL
partner 1.2 µg/mL | 0.997 | 0.982 | 0.939
partner 2.4 µg/mL | 0.989 | 0.988 | 0.938
partner 4.8 µg/mL | ≥ 1 | 0.977 | 0.923

fitness, S. pneumoniae D39V [1], one replicate
Details | first compound 1.25 µg/mL | first compound 2.5 µg/mL | first compound 5 µg/mL
partner 1.2 µg/mL | 0.924 | 0.903 | 0.942
partner 2.4 µg/mL | 0.971 | 0.94 | ≥ 1
partner 4.8 µg/mL | 0.788 | 0.813 | 0.841

Details | Bliss interaction score
B. subtilis 168 | 0.143
S. aureus DSM 20231 | 0.039
S. aureus Newman | 0.0421
S. pneumoniae D39V [2] | 0.0621

CNC(C)C1CCC(N)C(OC2C(N)CC(N)C(OC3OCC(C)(O)C(NC)C3O)C2O)O1 (stereo not drawn) [Gentamicin] + O=C1CN(/N=C/c2ccc([N+](=O)[O-])o2)C(=O)N1 [Nitrofurantoin]
fitness, S. pneumoniae D39V [1], main component drawn
Details | partner 1.285 µg/mL | partner 2 µg/mL | partner 2.57 µg/mL | partner 4 µg/mL | partner 8 µg/mL
first compound 2 µg/mL | 0.948 | 0.861 | 0.951 | 0.791 | 0.45
first compound 4 µg/mL | 0.943 | 0.897 | 0.945 | 0.747 | 0.409
first compound 8 µg/mL | 0.953 | 0.831 | 0.957 | 0.659 | 0.368

S. pneumoniae D39V [1], partner 5.14 µg/mL, one replicate, main component drawn
Details | fitness
first compound 2 µg/mL | 0.945
first compound 4 µg/mL | 0.947
first compound 8 µg/mL | 0.918

main component drawn
Details | Bliss interaction score
B. subtilis 168 | -0.138
S. aureus DSM 20231 | -0.0432
S. aureus Newman | 0.0572
S. pneumoniae D39V [2] | 0.0782

Clc1ccc(COC(Cn2ccnc2)c2ccc(Cl)cc2Cl)c(Cl)c1 (stereo not drawn) [Miconazole] + C[n+]1ccc(-c2cc[n+](C)cc2)cc1 [Paraquat]
fitness, S. pneumoniae D39V [1]
Details | first compound 1.073 µg/mL | first compound 2.145 µg/mL | first compound 4.29 µg/mL
partner 1.5 µg/mL | ≥ 1 | 0.999 | 0.925
partner 3 µg/mL | ≥ 1 | 0.987 | 0.908
partner 6 µg/mL | 0.979 | 0.983 | 0.824

fitness, S. pneumoniae D39V [1], one replicate
Details | first compound 1.25 µg/mL | first compound 2.5 µg/mL | first compound 5 µg/mL
partner 1.5 µg/mL | ≥ 1 | 0.983 | 0.944
partner 3 µg/mL | ≥ 1 | ≥ 1 | 0.997
partner 6 µg/mL | 0.957 | 0.932 | 0.885

Details | Bliss interaction score
B. subtilis 168 | 0.0318
S. aureus DSM 20231 | 0.0436
S. aureus Newman | -0.0378
S. pneumoniae D39V [2] | -0.0527

CC1=C(C(=O)O)N2C(=O)[C@@H](NC(=O)[C@H](N)c3ccccc3)[C@H]2SC1 [Cephalexin] + Clc1ccc(COC(Cn2ccnc2)c2ccc(Cl)cc2Cl)c(Cl)c1 [Miconazole]
fitness, S. pneumoniae D39V [1], one replicate
Details | first compound 0.125 µg/mL | first compound 0.25 µg/mL | first compound 0.5 µg/mL
partner 1.25 µg/mL | 0.987 | 0.878 | 0.858
partner 2.5 µg/mL | 0.885 | 0.826 | 0.819
partner 5 µg/mL | 0.89 | 0.867 | 0.893

fitness, S. pneumoniae D39V [1]
Details | first compound 1 µg/mL | first compound 2 µg/mL | first compound 4 µg/mL
partner 1.073 µg/mL | – | – | 0.0455
partner 2.145 µg/mL | – | – | 0.0466
partner 4.29 µg/mL | 0.482 | 0.37 | 0.234

Details | Bliss interaction score
B. subtilis 168 | 0.0898
S. aureus DSM 20231 | 0.0471
S. aureus Newman | 0.063
S. pneumoniae D39V [2] | -0.0715

Clc1ccc(COC(Cn2ccnc2)c2ccc(Cl)cc2Cl)c(Cl)c1 (stereo not drawn) [Miconazole] + Cc1onc(-c2ccccc2)c1C(=O)N[C@@H]1C(=O)N2[C@@H]1SC(C)(C)[C@@H]2C(=O)O [Oxacillin]
fitness, S. pneumoniae D39V [1]
Details | first compound 1.073 µg/mL | first compound 1.25 µg/mL | first compound 2.145 µg/mL | first compound 2.5 µg/mL | first compound 4.29 µg/mL | first compound 5 µg/mL
partner 0.01 µg/mL | ≥ 1 | 0.939 | ≥ 1 | 0.938 | 0.928 | 0.946
partner 0.02 µg/mL | 0.977 | 0.864 | 0.906 | 0.874 | 0.716 | 0.892
partner 0.04 µg/mL | – | 0.363 | – | 0.359 | 0.434 | 0.386

Details | Bliss interaction score
B. subtilis 168 | 0.0802
S. aureus DSM 20231 | 0.0539
S. aureus Newman | 0.0481
S. pneumoniae D39V [2] | 0.0753

Clc1ccc(COC(Cn2ccnc2)c2ccc(Cl)cc2Cl)c(Cl)c1 (stereo not drawn) [Miconazole] + CN[C@@H]1[C@H](O[C@H]2[C@H](O[C@H]3[C@H](O)[C@@H](O)[C@H](N=C(N)N)[C@@H](O)[C@@H]3N=C(N)N)O[C@@H](C)[C@]2(O)C=O)O[C@@H](CO)[C@H](O)[C@H]1O [Streptomycin]
fitness, S. pneumoniae D39V [1]
Details | first compound 1.073 µg/mL | first compound 1.25 µg/mL | first compound 2.145 µg/mL | first compound 2.5 µg/mL | first compound 4.29 µg/mL | first compound 5 µg/mL
partner 2 µg/mL | 0.978 | – | 0.977 | – | 0.936 | –
partner 4 µg/mL | 0.988 | 0.909 | 0.988 | 0.904 | 0.946 | 0.912
partner 8 µg/mL | ≥ 1 | 0.86 | ≥ 1 | 0.832 | 0.932 | 0.86

fitness, S. pneumoniae D39V [1], one replicate
Details | first compound 1.25 µg/mL | first compound 2.5 µg/mL | first compound 5 µg/mL
partner 2 µg/mL | 0.922 | 0.964 | 0.977
partner 16 µg/mL | 0.712 | 0.632 | 0.679

Details | Bliss interaction score
B. subtilis 168 | 0.0605
S. aureus DSM 20231 | 0.0476
S. aureus Newman | 0.0487
S. pneumoniae D39V [2] | 0.0827

CC1=C(C(=O)O)N2C(=O)[C@@H](NC(=O)[C@H](N)c3ccccc3)[C@H]2SC1 [Cephalexin] + CO[C@H]1/C=C/O[C@@]2(C)Oc3c(C)c(O)c4c(O)c(c(/C=N/N5CCN(C)CC5)c(O)c4c3C2=O)NC(=O)/C(C)=C\C=C\[C@H](C)[C@H](O)[C@@H](C)[C@@H](O)[C@@H](C)[C@H](OC(C)=O)[C@@H]1C [Rifampicin]
fitness, S. pneumoniae D39V [1], one replicate
Details | first compound 0.125 µg/mL | first compound 0.25 µg/mL | first compound 0.5 µg/mL | first compound 1 µg/mL | first compound 2 µg/mL | first compound 4 µg/mL
partner 0.025 µg/mL | – | – | – | 0.258 | 0.0265 | 0.0322
partner 0.05 µg/mL | 0.714 | 0.774 | 0.7 | – | – | –
partner 0.1 µg/mL | 0.314 | 0.257 | 0.225 | – | – | –
partner 0.2 µg/mL | 0.207 | 0.141 | 0.108 | 0 | 0 | 0

fitness, S. pneumoniae D39V [1]
Details | first compound 1 µg/mL | first compound 2 µg/mL | first compound 4 µg/mL
partner 0.05 µg/mL | 0.301 | 0.0661 | 0.0542
partner 0.1 µg/mL | 0.14 | 0.0642 | 0.0638

Details | Bliss interaction score
B. subtilis 168 | 0.12
S. aureus DSM 20231 | 0.0837
S. aureus Newman | 0.0156
S. pneumoniae D39V [2] | -0.065
